From patent US7432093B2, “Soluble, functional apoptotic protease-activating factor 1 fragments” (The Trustees of Princeton University, priority 2004, dated 2008)

T1: caspase-9 activation by the soluble Apaf-1 fragment (Homo sapiens, UniProt O14727)
T1 construct: Leu-Glu-His6 (C); made in house; host or cells: Escherichia coli BL21(DE3), pET29 (both proteins)
T1 sequence (O14727 1-591): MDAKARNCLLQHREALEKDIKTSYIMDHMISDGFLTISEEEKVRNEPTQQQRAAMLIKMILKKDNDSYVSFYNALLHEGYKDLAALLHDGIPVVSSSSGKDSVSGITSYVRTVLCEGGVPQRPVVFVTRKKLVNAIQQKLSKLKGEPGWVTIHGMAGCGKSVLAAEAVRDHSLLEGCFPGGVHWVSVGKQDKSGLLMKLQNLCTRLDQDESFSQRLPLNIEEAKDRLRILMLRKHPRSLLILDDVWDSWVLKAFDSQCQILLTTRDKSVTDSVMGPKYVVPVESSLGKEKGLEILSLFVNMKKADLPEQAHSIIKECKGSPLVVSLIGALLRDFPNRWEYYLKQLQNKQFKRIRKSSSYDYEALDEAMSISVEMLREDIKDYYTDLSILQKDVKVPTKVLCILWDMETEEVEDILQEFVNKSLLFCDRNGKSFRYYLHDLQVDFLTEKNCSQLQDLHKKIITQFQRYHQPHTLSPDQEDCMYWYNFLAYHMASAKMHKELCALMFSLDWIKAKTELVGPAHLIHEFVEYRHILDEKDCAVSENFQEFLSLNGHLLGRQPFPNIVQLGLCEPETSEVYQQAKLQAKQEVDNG
T1 sequence (P55211 1-315 partner limits assumed): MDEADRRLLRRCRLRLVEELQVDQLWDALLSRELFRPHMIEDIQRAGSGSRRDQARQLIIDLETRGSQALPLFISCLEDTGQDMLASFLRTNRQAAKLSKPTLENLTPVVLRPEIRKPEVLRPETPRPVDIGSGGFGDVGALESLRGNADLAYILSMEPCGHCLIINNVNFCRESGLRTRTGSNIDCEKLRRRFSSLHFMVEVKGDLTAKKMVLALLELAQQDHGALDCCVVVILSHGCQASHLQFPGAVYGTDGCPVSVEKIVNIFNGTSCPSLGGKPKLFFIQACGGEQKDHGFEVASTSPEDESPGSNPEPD
T1 sequence (P55211 331-416 partner limits assumed): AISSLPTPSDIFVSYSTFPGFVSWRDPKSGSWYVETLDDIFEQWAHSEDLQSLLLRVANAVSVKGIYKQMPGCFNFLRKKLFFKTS


Columns and labels:
[1] = molecular target: T1, caspase-9 activation by the soluble Apaf-1 fragment; assay: Caspase-9 activation assay (fluorogenic, LEHD-AMC); format: biochemical; settings: for Apaf-1-mediated caspase-9 activation by nucleotide with EDTA (hydrolysis blocked): 1 millimolar EDTA; for Apaf-1-mediated caspase-9 activation by nucleotide with EDTA (hydrolysis blocked) / Apaf-1-mediated caspase-9 activation by nucleotide: FIG. 6B/6C; for Apaf-1-mediated caspase-9 activation by nucleotide: Apaf-1 2 micromolar, caspase-9 0.2 micromolar, no EDTA
Protocol: A fluorogenic assay was developed to monitor caspase-9 activation by the soluble Apaf-1 fragment. […] Then, caspase-9 and Apaf-1 were added to a final volume of 200 microliter and final concentrations of 0.2 micromolar and 2 micromolar, respectively. After incubation for 5 minutes at room temperature, the caspase-9 substrate LEHD-AMC (a tetrapeptide coupled to 7-amino […]) was added to the reaction at a final concentration of 200 micromolar. The conversion of the fluorogenic substrate was then measured using a Hitachi F2500 fluorescence spectrophotometer with an excitation wavelength of 380 nanometers and a fluorescence detection wavelength of 440 nanometers.

[2] = format: physicochemical, E. coli
Protocol: Preferably, solubility of the fragment is assessed in a lysate of a bacterial culture used to produce the fragment at a concentration of at least 1 milligram per liter of bacterial culture.
All constructs for protein expression were generated using a standard PCR-based cloning strategy, and the identity of individual clones was verified by double-stranded plasmid sequencing. A soluble Apaf-1 fragment (residues 1-591, sequence (SEQ ID NO: 1) shown in FIG. 1) was over-expressed in Escherichia coli strain BL21(DE3) using plasmid vector pET29 having the nucleotide sequence described by Jiang et al. (2000, J. Biol. Chem. 275:31199-31203) operatively ligated therein. The coding sequence included an additional sequence encoding eight amino acid residues at its carboxy-terminal end (i.e., linked to residue 591 in the translated protein). These residues (Leu-Glu-His6) included a nickel-binding hexa-histidine sequence used for metal affinity chromatographic purification of the expressed protein. Soluble Apaf-1 was purified from the cell lysate using a Ni-NTA (nitrilotriacetic acid-ligated nickel; Qiagen) chromatography column. Dithiothreitol (DTT) and ethylenediamine tetraacetic acid (EDTA) were added to the eluted fraction in final concentrations of 5 millimolar each. After incubation for 30 minutes on ice, the protein solution was applied to an anion-exchange column (Source-15Q, Pharmacia) for further purification.

Molecule | Apaf-1-mediated caspase-9 activation by nucleotide with EDTA (hydrolysis blocked) [1] | Apaf-1-mediated caspase-9 activation by nucleotide [1] | Solubility [2] | other results
CSc1nc(N)c2ncn([C@@H]3O[C@H](COP(=O)(O)OP(=O)(O)OP(=O)(O)O)[C@@H](O)[C@H]3O)c2n1 [APM, 2-methylthio-ATP] | abrogated this effect | supported Apaf-1-mediated caspase-9 activation |  | 
Nc1nc(Cl)nc2c1ncn2[C@H]1C[C@H](O)[C@@H](COP(=O)(O)OP(=O)(O)OP(=O)(O)O)O1 [Fragment 2CdATP] | loss of this response | potent activator for caspase-9 activation |  | optimal concentration for caspase-9 activation [1]: approximately 100 micromolar
Nc1ncnc2c1ncn2[C@@H]1O[C@H](COP(=O)(O)OP(=O)(O)OP(O)(O)=S)[C@@H](O)[C@H]1O [ATP-gamma-S] |  | unable to support caspase-9 activation |  | 
Nc1ncnc2c1ncn2[C@@H]1O[C@H](COP(=O)(O)OP(=O)(O)OP(=O)(O)O)[C@@H](O)[C@H]1O [ATP] | completely abolished the positive effect of ATP | further drastically improved caspase-9 activity |  | 
Nc1ncnc2c1ncn2[C@H]1C[C@H](O)[C@@H](COP(=O)(O)OP(=O)(O)OP(=O)(O)O)O1 [dATP] | completely abolished caspase-9 activation |  |  | optimal concentration for caspase-9 activation [1]: 1 to 5 µM; Apaf-1-mediated activation of caspase-9 at higher concentrations ([1]; above the optimal range of 1-5 micromolar): reduced slightly; caspase-9 activation compared with ATP ([1]; nucleotide at 2 micromolar): greater activation of caspase-9 than did ATP
94-591: recombinant Apaf-1 fragment, residues 94-591 of SEQ ID NO: 1 (protein, listed as Homo sapiens) VSSSSGKDSVSGITSYVRTVLCEGGVPQRPVVFVTRKKLVNAIQQKLSKLKGEPGWVTIHGMAGCGKSVLAAEAVRDHSLLEGCFPGGVHWVSVGKQDKSGLLMKLQNLCTRLDQDESFSQRLPLNIEEAKDRLRILMLRKHPRSLLILDDVWDSWVLKAFDSQCQILLTTRDKSVTDSVMGPKYVVPVESSLGKEKGLEILSLFVNMKKADLPEQAHSIIKECKGSPLVVSLIGALLRDFPNRWEYYLKQLQNKQFKRIRKSSSYDYEALDEAMSISVEMLREDIKDYYTDLSILQKDVKVPTKVLCILWDMETEEVEDILQEFVNKSLLFCDRNGKSFRYYLHDLQVDFLTEKNCSQLQDLHKKIITQFQRYHQPHTLSPDQEDCMYWYNFLAYHMASAKMHKELCALMFSLDWIKAKTELVGPAHLIHEFVEYRHILDEKDCAVSENFQEFLSLNGHLLGRQPFPNIVQLGLCEPETSEVYQQAKLQAKQEVDNG |  |  | ++ | 
1-589: recombinant Apaf-1 fragment, residues 1-589 of SEQ ID NO: 1 (protein, listed as Homo sapiens) MDAKARNCLLQHREALEKDIKTSYIMDHMISDGFLTISEEEKVRNEPTQQQRAAMLIKMILKKDNDSYVSFYNALLHEGYKDLAALLHDGIPVVSSSSGKDSVSGITSYVRTVLCEGGVPQRPVVFVTRKKLVNAIQQKLSKLKGEPGWVTIHGMAGCGKSVLAAEAVRDHSLLEGCFPGGVHWVSVGKQDKSGLLMKLQNLCTRLDQDESFSQRLPLNIEEAKDRLRILMLRKHPRSLLILDDVWDSWVLKAFDSQCQILLTTRDKSVTDSVMGPKYVVPVESSLGKEKGLEILSLFVNMKKADLPEQAHSIIKECKGSPLVVSLIGALLRDFPNRWEYYLKQLQNKQFKRIRKSSSYDYEALDEAMSISVEMLREDIKDYYTDLSILQKDVKVPTKVLCILWDMETEEVEDILQEFVNKSLLFCDRNGKSFRYYLHDLQVDFLTEKNCSQLQDLHKKIITQFQRYHQPHTLSPDQEDCMYWYNFLAYHMASAKMHKELCALMFSLDWIKAKTELVGPAHLIHEFVEYRHILDEKDCAVSENFQEFLSLNGHLLGRQPFPNIVQLGLCEPETSEVYQQAKLQAKQEVD |  |  | ++++ | 
C115S: point mutation C115S made in SEQ ID NO: 1 (protein, listed as Homo sapiens) MDAKARNCLLQHREALEKDIKTSYIMDHMISDGFLTISEEEKVRNEPTQQQRAAMLIKMILKKDNDSYVSFYNALLHEGYKDLAALLHDGIPVVSSSSGKDSVSGITSYVRTVLSEGGVPQRPVVFVTRKKLVNAIQQKLSKLKGEPGWVTIHGMAGCGKSVLAAEAVRDHSLLEGCFPGGVHWVSVGKQDKSGLLMKLQNLCTRLDQDESFSQRLPLNIEEAKDRLRILMLRKHPRSLLILDDVWDSWVLKAFDSQCQILLTTRDKSVTDSVMGPKYVVPVESSLGKEKGLEILSLFVNMKKADLPEQAHSIIKECKGSPLVVSLIGALLRDFPNRWEYYLKQLQNKQFKRIRKSSSYDYEALDEAMSISVEMLREDIKDYYTDLSILQKDVKVPTKVLCILWDMETEEVEDILQEFVNKSLLFCDRNGKSFRYYLHDLQVDFLTEKNCSQLQDLHKKIITQFQRYHQPHTLSPDQEDCMYWYNFLAYHMASAKMHKELCALMFSLDWIKAKTELVGPAHLIHEFVEYRHILDEKDCAVSENFQEFLSLNGHLLGRQPFPNIVQLGLCEPETSEVYQQAKLQAKQEVDNG |  |  |  | solubility and solution behavior (in words) [2]: without significant loss of activity or solubility
Full Length Apaf-1: full-length (ca. 140-kilodalton) human Apaf-1 protein expressed in E. coli (protein, listed as Homo sapiens) MDAKARNCLLQHREALEKDIKTSYIMDHMISDGFLTISEEEKVRNEPTQQQRAAMLIKMILKKDNDSYVSFYNALLHEGYKDLAALLHDGIPVVSSSSGKDSVSGITSYVRTVLCEGGVPQRPVVFVTRKKLVNAIQQKLSKLKGEPGWVTIHGMAGCGKSVLAAEAVRDHSLLEGCFPGGVHWVSVGKQDKSGLLMKLQNLCTRLDQDESFSQRLPLNIEEAKDRLRILMLRKHPRSLLILDDVWDSWVLKAFDSQCQILLTTRDKSVTDSVMGPKYVVPVESSLGKEKGLEILSLFVNMKKADLPEQAHSIIKECKGSPLVVSLIGALLRDFPNRWEYYLKQLQNKQFKRIRKSSSYDYEALDEAMSISVEMLREDIKDYYTDLSILQKDVKVPTKVLCILWDMETEEVEDILQEFVNKSLLFCDRNGKSFRYYLHDLQVDFLTEKNCSQLQDLHKKIITQFQRYHQPHTLSPDQEDCMYWYNFLAYHMASAKMHKELCALMFSLDWIKAKTELVGPAHLIHEFVEYRHILDEKDCAVSENFQEFLSLNGHLLGRQPFPNIVQLGLCEPETSEVYQQAKLQAKQEVDNG |  |  | − | 
1-469: recombinant Apaf-1 fragment, residues 1-469 of SEQ ID NO: 1 (protein, listed as Homo sapiens) MDAKARNCLLQHREALEKDIKTSYIMDHMISDGFLTISEEEKVRNEPTQQQRAAMLIKMILKKDNDSYVSFYNALLHEGYKDLAALLHDGIPVVSSSSGKDSVSGITSYVRTVLCEGGVPQRPVVFVTRKKLVNAIQQKLSKLKGEPGWVTIHGMAGCGKSVLAAEAVRDHSLLEGCFPGGVHWVSVGKQDKSGLLMKLQNLCTRLDQDESFSQRLPLNIEEAKDRLRILMLRKHPRSLLILDDVWDSWVLKAFDSQCQILLTTRDKSVTDSVMGPKYVVPVESSLGKEKGLEILSLFVNMKKADLPEQAHSIIKECKGSPLVVSLIGALLRDFPNRWEYYLKQLQNKQFKRIRKSSSYDYEALDEAMSISVEMLREDIKDYYTDLSILQKDVKVPTKVLCILWDMETEEVEDILQEFVNKSLLFCDRNGKSFRYYLHDLQVDFLTEKNCSQLQDLHKKIITQFQRYHQ |  |  | + | 
